Results published in patent publication US20050276855A1, “Composition and method using local application of lipophilic lathyrogens sustained release formulations” (priority 2004, published 2005).
“Also recorded” adds a separate entry of the source.

Tests used:
[1] = tested on: Schiff base crosslinks of the collagen; test: Swelling of skin samples in various solutions (collagen crosslink cleavage); set-up: species or system nude mice; settings: for Cleavage of crosslinks once reduced: crosslinks reduced with sodium borohydrate; for Cleavage of non reduced Schiff base crosslinks of collagen: non reduced skin discs
Description: This example documents one of the effects of DPA on the integrity of collagen structure. […] Once the crosslink is reduced (with sodium borohydrate) a stable covalent crosslinks is formed, resistant to any chemical means to break it. The Example also documents that only substances having —SH and —NH2 groups free are effective. Therefore N acetyl cystein is not effective due to the blocking its —NH2 group.
Method: Skin of 4 months old nude mice was dissected, spread on a board and with a 0.5 cm diameter punch several discs were obtained. These were kept in a moist chamber to prevent drying. The discs were weighted and immersed in the following solutions for 1 hour incubation: • 1. Phosphate buffered saline (0.1 M, pH 7.3)-control; • 2. PBS with 10 mg sodium borohydrate in 10 ml; • 3. Some discs from group 1 and 2 were further incubated for 1 hour PBS containing 100 mg cystein, or D-penicillamine or N-acetyl cystein; • 4. After 1 hour incubation in the above solutions, the skin samples were placed into 0.45% acetic acid (pH 3.5) for another hour.
After each incubation time the skins samples were blotted on a filter paper and weighted on a analytical balance with the sensitivity to 0.1 mg.
Swelling in Table 1 is given as mg weight/0.5 cm disc of skin. The data are shown as Mean +/− standard deviation (“SD”).
In this Example the swelling capacity was used as an indicator of the structural stability, namely number of crosslinks in the collagen molecules. More crosslinked collagen swells less than when the bonds are cleaved, resuming the structure of “young” collagen.

esophageal stricture [2] = settings: given systemically, without bougienage; cited from earlier work
[3] = tested on: incision skin wound in rats; test: Breaking strength of incision skin wound in rats after a single local injection; type: in vivo; settings: for Breaking strength / Change in % of control / Effect on breaking strength versus non-treated controls: Example II; for Breaking strength: 12 days after wounding, single injection underneath wound line, DPA 5 mg/0.25 ml, hexyl ester 7.5 mg/0.25 ml, Mean +/− SD; for Change in % of control: breaking strength 12 days after wounding; for Effect on breaking strength versus non-treated controls: in saline; for Effect on breaking strength versus non-treated controls / Breaking strength of skin wound, X: 12 days; for Effect on breaking strength of the healing wound: Example III, in polyethylene glycol 600; for Breaking strength of skin wound, X: Example IV, in thermosensitive polymer (TSP), Sprague-Dawley female rats
Experimental: Young adult rats have the hair clipped in the dorsum midline to make a rectangle having the dimensions of about 4 cm by about 9 cm. A full thickness skin incision in the midline of the dorsum of the rat is made about 8 cm long. The wound is closed with 9 to 10 interrupted sutures.
Various treatments are injected in between the sutures, underneath the closed wounds with a 8 cm long gastric needle, inserted at the distal site of the incision wound. After 12 days the animals are terminated, the skin wound is dissected with 2 cm intact skin at both sides. A specially designed multiple razor blade cutter with blades 0.5 cm apart is placed onto the skin, stretched loosely onto a cork lined board and hammered to obtain several (10 to 12) equal width skin strips, having the wound in the middle. Individual skin strips are attached to grips of a tensiometer and breaking strength is determined.
In this Example II, Applicants utilized the above-recited test method to evaluate local administration of unmodified lathyrogens and/or chemically modified lathyrogens, administered in a polymeric carrier.
In certain embodiments, the polymeric carrier comprised a mixture of polylactic and polyglycolic acid of defined molecular weights and proportion, dissolved in N-methylpyrolidone. This polymer was obtained from Atrix Company (CO) as Atrigel 30 which was supposed to be degraded in the tissues within 30 days. […] The rate of its degradation—hydrolysis, determines the rate of the release of the lathyrogen dispersed therein.
The tested lathyrogens, Compound I or derivative thereof, namely D-penicillamine-hexyl ester HCl, i.e. Compound III, wherein R1 is hexyl, was used at the dose of 5 mg/0.25 ml of polymeric carrier (for DPA), or 7.5 mg of Compound III/0.25 ml of polymeric carrier. The formulation was injected after closing the skin wound between the sutures, underneath the wound line. Saline solutions of BAPN and DPA were also administered at the same dose and volume.
Four rats were used in each group. The data recited in Table II are presented as Mean +/− Standard Deviation, based on 20 to 28 determinations in every group. The testing of the breaking strength of the skin wound strips was done 12 days after inflecting the wound. […]

peritendinous adhesions = settings: 1-2-g/day per os, cited from earlier work
lacerated tendons = settings: systemic administration; cited from earlier work
[4] = tested on: scar contracture of intracardiac prosthetic patches; settings: systemic; cited from earlier work
intraoccular pressure = settings: topical, cited from earlier work
sclera puncture wound = settings: locally injected; cited from earlier work
esophageal stricture [5] = settings: young adult rabbits; cited from earlier work
[6] = tested on: function of filter surgery; settings: systemic administration; cited from earlier work
[7] = 0.5 cm skin discs, 1 hour PBS, 1 hour PBS containing 100 mg substance, then 1 hour 0.45% acetic acid (pH 3.5)

Molecule: N[C@@H](CS)C(=O)O [CYSH, cystein]
- Swelling of skin samples, Mean [1, 7]: 84.0 mg weight/0.5 cm disc of skin
- Cleavage of crosslinks once reduced [1]: no effective
- Cleavage of non reduced Schiff base crosslinks of collagen [1]: effectively cleaving

Molecule: N#CCCN [BAPN, Beta-aminopropionitrile]
- Stricture of the esophageal lumen (esophageal stricture [2]): preventing the stricture of the lumen
- Breaking strength [3]: 735 +/− 40 g/0.5 cm
- Change in % of control [3]: +14%
- Effect on breaking strength versus non-treated controls [3]: no differences in the breaking strength
- Effect in patients after tenolysis (peritendinous adhesions): beneficial effect
- Side toxic effects (peritendinous adhesions; study discontinued): several side toxic effects
- Gliding function of lacerated tendons (lacerated tendons): significant improvement in the gliding function
- Scar contracture [4]: inhibition of scar contracture

Molecule: N#CCCN.N#CCCN.O=C(O)/C=C/C(=O)O [BAPN-F]
- Time postoperative pressure was maintained (intraoccular pressure; after filtration surgery): 26.4+−11 weeks
- Overall success rate (intraoccular pressure; difficult cases of glaucoma): 74%
- Postoperative intraoccular pressure (intraoccular pressure; preoperative pressure 40 mm Hg): 19 mm Hg
- Collagen deposition in adjacent muscle (sclera puncture wound): decreased
- Wound contraction after puncturing the sclera (sclera puncture wound): inhibited wound contraction

Molecule: COc1cc2c(c(OC)c1OC)-c1ccc(OC)c(=O)cc1[C@@H](NC(C)=O)CC2 [colchicine]
- Severity of esophageal stricture (esophageal stricture [5]): severe stricture
- Wound healing (esophageal stricture [5]): delayed wound healing

Molecule: CCCCCCNCCC#N [BAPN - lipophilic, hexyl-beta-aminopropionitrile]
- Effect on breaking strength of the healing wound [3]: effectiveness
- Breaking strength of skin wound, X [3]: 226

Molecule: DPA-hexanal acetone adduct
- Effect on breaking strength of the healing wound [3]: no effect

Molecule: CCCCCCOC(=O)[C@H](N)C(C)(C)S.Cl [DPA - lipophilic, D-penicillamine-hexyl ester HCl]
- Breaking strength of skin wound, X [3]: 321

Molecule: CC(C)(S)C(N)C(=O)O (stereo in doubt) [DPA, D-Penicillamine]
- Breaking strength [3]: 695 +/− 38 g/0.5 cm
- Change in % of control [3]: −2%
- Effect on breaking strength versus non-treated controls [3]: no differences in the breaking strength
- Collagen deposition in adjacent muscle (sclera puncture wound): decreased
- Wound contraction after puncturing the sclera (sclera puncture wound): inhibited wound contraction
- Severity of esophageal stricture (esophageal stricture [5]): less severe stricture
- Effect on the function of filter surgery [6]: not effective
- Swelling of skin samples, Mean [1, 7]: 84.0 mg weight/0.5 cm disc of skin
- Cleavage of crosslinks once reduced [1]: no effective
- Cleavage of non reduced Schiff base crosslinks of collagen [1]: cleaves the non reduced covalent Schiff base crosslinks; also recorded: effectively cleaving

Molecule: [BH4-].[Na+] [SBH + control, sodium borohydrate]
- Swelling of skin samples, Mean ([1]; discs first incubated 1 hour in PBS with 10 mg sodium borohydrate in 10 ml (crosslinks reduced), then substance, then 0.45% acetic acid (pH 3.5)): 27.5 mg weight/0.5 cm disc of skin

Molecule: CC(=O)N[C@@H](CS)C(=O)O [N-acetylCYSH, N-acetyl cystein]
- Swelling of skin samples, Mean [1, 7]: 32.2 mg weight/0.5 cm disc of skin
- Cleavage of non reduced Schiff base crosslinks of collagen [1]: not effective
